Assay results: US9738634B2, “Heterocyclic amide compound and herbicide” (SYNGENTA PARTICIPATIONS AG, priority 2013, dated 2017)

How the values were obtained:
Type in all cases: in vivo
barnyard grass [1] = test: Test Example 1: weedkilling efficacy, preemergent weed treatment in the submerged state; A: barnyard grass; conditions: treatment dosage 252 g/ha
How it was run: (§1)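 Pre-emergence paddy test: weed seeds sown in submerged alluvial soil (4 cm water), 2.5-leaf rice transplanted, water-diluted emulsion applied to water surface at sowing at stated g/ha. Scored at 3 weeks, greenhouse 25–30 °C.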

bulrush [2] = test: Test Example 1: weedkilling efficacy, preemergent weed treatment in the submerged state; B: bulrush; conditions: treatment dosage 252 g/ha
How it was run: as §1

oval-leafed pondweed [3] = test: Test Example 1: weedkilling efficacy, preemergent weed treatment in the submerged state; C: oval-leafed pondweed; conditions: treatment dosage 252 g/ha
How it was run: as §1

transplanted rice = test: Test Example 1: preemergent weed treatment in the submerged state, effect on crop; a: transplanted rice; conditions: treatment dosage 252 g/ha
How it was run: as §1

barnyard grass [4] = test: Test Example 2: weedkilling efficacy, growth period weed treatment in the submerged state; A: barnyard grass; conditions: treatment dosage 252 g/ha
How it was run: (§2)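 Seedlings at 1-2 leaves in 4 cm-deep submerged alluvial soil received emulsion formulations on the water surface, dosed per hectare; effects were judged 3 weeks on.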

bulrush [5] = test: Test Example 2: weedkilling efficacy, growth period weed treatment in the submerged state; B: bulrush; conditions: treatment dosage 252 g/ha
How it was run: as §2

oval-leafed pondweed [6] = test: Test Example 2: weedkilling efficacy, growth period weed treatment in the submerged state; C: oval-leafed pondweed; conditions: treatment dosage 252 g/ha
How it was run: as §2

crabgrass [7] = test: Test Example 3: weedkilling efficacy through soil treatment; D: crabgrass; conditions: treatment dosage 315 g/ha
How it was run: (§3)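 Crop and weed responses were judged three weeks after a uniform surface spray of the water-diluted emulsion at the given g/ha rate. Seeds sat beneath about 1.5 cm of sterilized diluvial soil, and boxes stood in a greenhouse at 25 to 30° C.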

green foxtail [8] = test: Test Example 3: weedkilling efficacy through soil treatment; E: green foxtail; conditions: treatment dosage 315 g/ha
How it was run: as §3

black-grass [9] = test: Test Example 3: weedkilling efficacy through soil treatment; H: black-grass; conditions: treatment dosage 315 g/ha
How it was run: as §3

Italian ryegrass [10] = test: Test Example 3: weedkilling efficacy through soil treatment; I: Italian ryegrass; conditions: treatment dosage 315 g/ha
How it was run: as §3

Indian mallow [11] = test: Test Example 3: weedkilling efficacy through soil treatment; K: Indian mallow; conditions: treatment dosage 315 g/ha
How it was run: as §3

redroot pigweed [12] = test: Test Example 3: weedkilling efficacy through soil treatment; L: redroot pigweed; conditions: treatment dosage 315 g/ha
How it was run: as §3

fig-leafed goosefoot [13] = test: Test Example 3: weedkilling efficacy through soil treatment; M: fig-leafed goosefoot; conditions: treatment dosage 315 g/ha
How it was run: as §3

chickweed [14] = test: Test Example 3: weedkilling efficacy through soil treatment; N: chickweed; conditions: treatment dosage 315 g/ha
How it was run: as §3

birds-eye speedwell [15] = test: Test Example 3: weedkilling efficacy through soil treatment; p: birds-eye speedwell; conditions: treatment dosage 315 g/ha
How it was run: as §3

directly sown rice [16] = test: Test Example 3: soil treatment, effect on crop; b: directly sown rice; conditions: treatment dosage 315 g/ha
How it was run: as §3

corn [17] = test: Test Example 3: soil treatment, effect on crop; c: corn; conditions: treatment dosage 315 g/ha
How it was run: as §3

soybean [18] = test: Test Example 3: soil treatment, effect on crop; d: soybean; conditions: treatment dosage 315 g/ha
How it was run: as §3

wheat [19] = test: Test Example 3: soil treatment, effect on crop; e: wheat; conditions: treatment dosage 315 g/ha
How it was run: as §3

beet [20] = test: Test Example 3: soil treatment, effect on crop; f: beet; conditions: treatment dosage 315 g/ha
How it was run: as §3

crabgrass [21] = test: Test Example 4: weedkilling efficacy by foliar treatment; D: crabgrass; conditions: treatment dosage 315 g/ha
How it was run: (§4)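 Seeds are spot-sown into sterilized diluvial soil and covered with about 1.5 cm of soil. After 14 days' greenhouse growth at 25 to 30° C, plants are sprayed on stems and leaves with diluted emulsion at the stated g/ha rate, then scored at 3 weeks.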

green foxtail [22] = test: Test Example 4: weedkilling efficacy by foliar treatment; E: green foxtail; conditions: treatment dosage 315 g/ha
How it was run: as §4

black-grass [23] = test: Test Example 4: weedkilling efficacy by foliar treatment; H: black-grass; conditions: treatment dosage 315 g/ha
How it was run: as §4

Italian ryegrass [24] = test: Test Example 4: weedkilling efficacy by foliar treatment; I: Italian ryegrass; conditions: treatment dosage 315 g/ha
How it was run: as §4

Indian mallow [25] = test: Test Example 4: weedkilling efficacy by foliar treatment; K: Indian mallow; conditions: treatment dosage 315 g/ha
How it was run: as §4

redroot pigweed [26] = test: Test Example 4: weedkilling efficacy by foliar treatment; L: redroot pigweed; conditions: treatment dosage 315 g/ha
How it was run: as §4

fig-leafed goosefoot [27] = test: Test Example 4: weedkilling efficacy by foliar treatment; M: fig-leafed goosefoot; conditions: treatment dosage 315 g/ha
How it was run: as §4

chickweed [28] = test: Test Example 4: weedkilling efficacy by foliar treatment; N: chickweed; conditions: treatment dosage 315 g/ha
How it was run: as §4

catchweed = test: Test Example 4: weedkilling efficacy by foliar treatment; O: catchweed; conditions: treatment dosage 315 g/ha
How it was run: as §4

birds-eye speedwell [29] = test: Test Example 4: weedkilling efficacy by foliar treatment; p: birds-eye speedwell; conditions: treatment dosage 315 g/ha
How it was run: as §4

directly sown rice [30] = test: Test Example 4: foliar treatment, effect on crop; b: directly sown rice; conditions: treatment dosage 315 g/ha
How it was run: as §4

corn [31] = test: Test Example 4: foliar treatment, effect on crop; c: corn; conditions: treatment dosage 315 g/ha
How it was run: as §4

soybean [32] = test: Test Example 4: foliar treatment, effect on crop; d: soybean; conditions: treatment dosage 315 g/ha
How it was run: as §4

wheat [33] = test: Test Example 4: foliar treatment, effect on crop; e: wheat; conditions: treatment dosage 315 g/ha
How it was run: as §4

beet [34] = test: Test Example 4: foliar treatment, effect on crop; f: beet; conditions: treatment dosage 315 g/ha
How it was run: as §4

SMILES	A (barnyard grass) weedkilling efficacy grade (barnyard grass [1])	B (bulrush) weedkilling efficacy grade (bulrush [2])	C (oval-leafed pondweed) weedkilling efficacy grade (oval-leafed pondweed [3])	a (transplanted rice) effect on crop grade (transplanted rice)	A (barnyard grass) weedkilling efficacy grade (barnyard grass [4])	B (bulrush) weedkilling efficacy grade (bulrush [5])	C (oval-leafed pondweed) weedkilling efficacy grade (oval-leafed pondweed [6])	D (crabgrass) weedkilling efficacy grade (crabgrass [7])	E (green foxtail) weedkilling efficacy grade (green foxtail [8])	H (black-grass) weedkilling efficacy grade (black-grass [9])	I (Italian ryegrass) weedkilling efficacy grade (Italian ryegrass [10])	K (Indian mallow) weedkilling efficacy grade (Indian mallow [11])	L (redroot pigweed) weedkilling efficacy grade (redroot pigweed [12])	M (fig-leafed goosefoot) weedkilling efficacy grade (fig-leafed goosefoot [13])	N (chickweed) weedkilling efficacy grade (chickweed [14])	P (birds-eye speedwell) weedkilling efficacy grade (birds-eye speedwell [15])	b (directly sown rice) effect on crop grade (directly sown rice [16])	c (corn) effect on crop grade (corn [17])	d (soybean) effect on crop grade (soybean [18])	e (wheat) effect on crop grade (wheat [19])	other results
CC1=C(c2cccnc2F)C(=O)N(C(C)(C)C(=O)Nc2cccc(Cl)n2)CO1 [B-2-08]	5 (weed kill ratio 90% or more, (practically complete withering))	5 (weed kill ratio 90% or more, (practically complete withering))	5 (weed kill ratio 90% or more, (practically complete withering))	0 (weed kill ratio 5% or less (practically no effect))	5 (weed kill ratio 90% or more, (practically complete withering))	5 (weed kill ratio 90% or more, (practically complete withering))	5 (weed kill ratio 90% or more, (practically complete withering))	5 (weed kill ratio 90% or more, (practically complete withering))	5 (weed kill ratio 90% or more, (practically complete withering))	5 (weed kill ratio 90% or more, (practically complete withering))	5 (weed kill ratio 90% or more, (practically complete withering))	4 (weed kill ratio 70% or more, less than 90%)	4 (weed kill ratio 70% or more, less than 90%)	4 (weed kill ratio 70% or more, less than 90%)	3 (weed kill ratio 40% or more, less than 70%)	4 (weed kill ratio 70% or more, less than 90%)	5 (weed kill ratio 90% or more, (practically complete withering))	0 (weed kill ratio 5% or less (practically no effect))	0 (weed kill ratio 5% or less (practically no effect))	3 (weed kill ratio 40% or more, less than 70%)	f (beet) effect on crop grade (beet [20]): 1 (weed kill ratio 5% or more, less than 20%); D (crabgrass) weedkilling efficacy grade (crabgrass [21]): 5 (weed kill ratio 90% or more, (practically complete withering)); E (green foxtail) weedkilling efficacy grade (green foxtail [22]): 5 (weed kill ratio 90% or more, (practically complete withering)); H (black-grass) weedkilling efficacy grade (black-grass [23]): 5 (weed kill ratio 90% or more, (practically complete withering)); I (Italian ryegrass) weedkilling efficacy grade (Italian ryegrass [24]): 5 (weed kill ratio 90% or more, (practically complete withering)); K (Indian mallow) weedkilling efficacy grade (Indian mallow [25]): 4 (weed kill ratio 70% or more, less than 90%); L (redroot pigweed) weedkilling efficacy grade (redroot pigweed [26]): 4 (weed kill ratio 70% or more, less than 90%); M (fig-leafed goosefoot) weedkilling efficacy grade (fig-leafed goosefoot [27]): 4 (weed kill ratio 70% or more, less than 90%); N (chickweed) weedkilling efficacy grade (chickweed [28]): 4 (weed kill ratio 70% or more, less than 90%); O (catchweed) weedkilling efficacy grade (catchweed): 3 (weed kill ratio 40% or more, less than 70%); P (birds-eye speedwell) weedkilling efficacy grade (birds-eye speedwell [29]): 4 (weed kill ratio 70% or more, less than 90%); b (directly sown rice) effect on crop grade (directly sown rice [30]): 4 (weed kill ratio 70% or more, less than 90%); c (corn) effect on crop grade (corn [31]): 0 (weed kill ratio 5% or less (practically no effect)); d (soybean) effect on crop grade (soybean [32]): 4 (weed kill ratio 70% or more, less than 90%); e (wheat) effect on crop grade (wheat [33]): 2 (weed kill ratio 20% or more, less than 40%); f (beet) effect on crop grade (beet [34]): 5 (weed kill ratio 90% or more, (practically complete withering))
CC1=C(c2ccccc2)C(=O)N(C(C)(C)C(=O)Nc2cccc(Cl)n2)CO1 [B-2-29]	5 (weed kill ratio 90% or more, (practically complete withering))	5 (weed kill ratio 90% or more, (practically complete withering))	5 (weed kill ratio 90% or more, (practically complete withering))	0 (weed kill ratio 5% or less (practically no effect))	5 (weed kill ratio 90% or more, (practically complete withering))	5 (weed kill ratio 90% or more, (practically complete withering))	5 (weed kill ratio 90% or more, (practically complete withering))	5 (weed kill ratio 90% or more, (practically complete withering))	5 (weed kill ratio 90% or more, (practically complete withering))	5 (weed kill ratio 90% or more, (practically complete withering))	5 (weed kill ratio 90% or more, (practically complete withering))	4 (weed kill ratio 70% or more, less than 90%)	4 (weed kill ratio 70% or more, less than 90%)	5 (weed kill ratio 90% or more, (practically complete withering))	5 (weed kill ratio 90% or more, (practically complete withering))	5 (weed kill ratio 90% or more, (practically complete withering))	5 (weed kill ratio 90% or more, (practically complete withering))	0 (weed kill ratio 5% or less (practically no effect))	3 (weed kill ratio 40% or more, less than 70%)	5 (weed kill ratio 90% or more, (practically complete withering))	f (beet) effect on crop grade (beet [20]): 5 (weed kill ratio 90% or more, (practically complete withering)); D (crabgrass) weedkilling efficacy grade (crabgrass [21]): 5 (weed kill ratio 90% or more, (practically complete withering)); E (green foxtail) weedkilling efficacy grade (green foxtail [22]): 5 (weed kill ratio 90% or more, (practically complete withering)); H (black-grass) weedkilling efficacy grade (black-grass [23]): 5 (weed kill ratio 90% or more, (practically complete withering)); I (Italian ryegrass) weedkilling efficacy grade (Italian ryegrass [24]): 5 (weed kill ratio 90% or more, (practically complete withering)); K (Indian mallow) weedkilling efficacy grade (Indian mallow [25]): 5 (weed kill ratio 90% or more, (practically complete withering)); L (redroot pigweed) weedkilling efficacy grade (redroot pigweed [26]): 5 (weed kill ratio 90% or more, (practically complete withering)); M (fig-leafed goosefoot) weedkilling efficacy grade (fig-leafed goosefoot [27]): 4 (weed kill ratio 70% or more, less than 90%); N (chickweed) weedkilling efficacy grade (chickweed [28]): 5 (weed kill ratio 90% or more, (practically complete withering)); O (catchweed) weedkilling efficacy grade (catchweed): 4 (weed kill ratio 70% or more, less than 90%); P (birds-eye speedwell) weedkilling efficacy grade (birds-eye speedwell [29]): 4 (weed kill ratio 70% or more, less than 90%); b (directly sown rice) effect on crop grade (directly sown rice [30]): 5 (weed kill ratio 90% or more, (practically complete withering)); c (corn) effect on crop grade (corn [31]): 4 (weed kill ratio 70% or more, less than 90%); d (soybean) effect on crop grade (soybean [32]): 5 (weed kill ratio 90% or more, (practically complete withering)); e (wheat) effect on crop grade (wheat [33]): 5 (weed kill ratio 90% or more, (practically complete withering)); f (beet) effect on crop grade (beet [34]): 4 (weed kill ratio 70% or more, less than 90%)
